Bridge positions count the residues as written; N and C are the ends. Peptide text beside a SMILES is read from it.
Key:
Male ICR mice [1] = experiment: Forced swim test (FST); type: in vivo, mouse; details: i.c.v., 30 min before test, last 4 min of 6 min
Experimental: (§1) We performed mouse behavioral experiments in accordance with our previous study. Male ICR mice (n = 199 in total) aged 5 weeks old were purchased from Shimizu Laboratory Supplies (Kyoto, Japan) and maintained in an animal facility for 7–12 days. They had free access to food and water and were kept in a 12-h light/dark cycle (08:00–20:00). Experiments were carried out between 11:00 and 17:00 in a quiet and air-conditioned experimental room, to which mice were habituated for 30–60 min before each experiment. Animal experiments were performed in accordance with the guidelines of the Physiological Society of Japan and were approved by the Committee for Animal Experiments of Kurashiki University of Science and the Arts. Peptides were dissolved in phosphate-buffered saline (PBS). Peptides were injected intracerebroventricularly (i.c.v.) 30 min before behavioral tests (typically 5 μL/mouse), according to a previous study. The mouse was placed into an anesthetizing jar, to which isoflurane (0.2 mL) was added immediately before. […]
The forced swim test (FST) was performed in accordance with the method reported previously. […] The mouse was allowed to swim for 6 min and its activity was measured. […]

Male ICR mice [2] = experiment: Elevated plus-maze (EPM); type: in vivo, mouse; details: i.c.v., 5 min
Experimental: as §1
The elevated plus maze (EPM) apparatus consisted of four arms set in a cross pattern from a neutral central square (6 × 6 cm). […] The total number of entries to open arms and time spent in the open arms was measured. […]

mouse GIRK1/4 = molecular target: T1, mouse GIRK1/4 (Mus musculus, UniProt P48545+P63250); experiment: Whole-cell patch-clamp of GIRK1/4 in transfected 293T cells; type: cell-based; details: 293T cells transiently expressing mouse GIRK1/4, high K+ Tyrode solution (Fig 7); read-out: IC50, GIRK1/4 conductance
T1 construct: expressed in transfected cells; host or cells: 293T cells, transient calcium phosphate transfection, pCMV6 plasmid
T1 sequence (P63250 1-501): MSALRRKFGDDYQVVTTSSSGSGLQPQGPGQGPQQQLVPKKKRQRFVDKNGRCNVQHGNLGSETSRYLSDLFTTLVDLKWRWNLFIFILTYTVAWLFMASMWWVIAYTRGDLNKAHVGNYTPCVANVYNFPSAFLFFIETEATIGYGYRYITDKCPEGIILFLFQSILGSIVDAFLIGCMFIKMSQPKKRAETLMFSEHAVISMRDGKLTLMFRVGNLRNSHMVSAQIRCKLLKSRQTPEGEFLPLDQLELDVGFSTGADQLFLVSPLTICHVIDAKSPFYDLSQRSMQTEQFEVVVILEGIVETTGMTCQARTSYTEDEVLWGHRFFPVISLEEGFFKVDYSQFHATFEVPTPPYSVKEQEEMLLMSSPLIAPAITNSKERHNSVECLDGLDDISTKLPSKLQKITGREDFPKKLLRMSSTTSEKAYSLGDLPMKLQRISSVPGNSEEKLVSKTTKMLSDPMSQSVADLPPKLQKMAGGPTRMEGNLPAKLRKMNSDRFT
T1 sequence (P48545 1-419): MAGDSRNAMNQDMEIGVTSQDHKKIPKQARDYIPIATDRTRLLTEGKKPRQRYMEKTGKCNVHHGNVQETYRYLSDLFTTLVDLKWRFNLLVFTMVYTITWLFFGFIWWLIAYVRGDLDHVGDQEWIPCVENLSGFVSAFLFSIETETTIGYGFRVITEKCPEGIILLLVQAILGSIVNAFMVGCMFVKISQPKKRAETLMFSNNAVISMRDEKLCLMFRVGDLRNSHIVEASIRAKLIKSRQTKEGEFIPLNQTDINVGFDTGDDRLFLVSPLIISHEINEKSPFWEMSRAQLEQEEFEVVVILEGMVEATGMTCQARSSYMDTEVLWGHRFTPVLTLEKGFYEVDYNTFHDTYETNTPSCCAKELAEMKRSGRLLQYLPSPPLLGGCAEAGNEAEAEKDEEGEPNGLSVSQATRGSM
Excerpt: The cDNAs for rat ROMK and mouse GIRK1, 2, and 4 were generously donated by Drs Mikio Hayashi (Kansai Medical University) and David Weaver (Vanderbilt University). The ROMK channels were stably expressed by a cell line, 208–4, which was transduced with lentiviral vectors coexpressing the channel and green fluorescent protein (GFP) as described previously. The GIRK genes, cloned in a pCMV6 plasmid (Origene Technologies Inc, Rockville, MD), were transiently expressed in 293T cells with calcium phosphate transfection. GIRK channel currents were recorded 24 h after transfection.
Cells grown on small cover glasses (3 × 18 mm) were placed in a recording chamber. Whole-cell currents were recorded in Tyrode solution using an Axopatch 200B amplifier (Axon Instruments, Foster City, CA) at 25°C. Tyrode solution contained (in mM): NaCl 140, KCl 5.4, NaH2PO4 0.33, CaCl2 2, MgCl2 1, HEPES 5, and glucose 5.5 (pH 7.4 adjusted with NaOH). […] Whole-cell currents were recorded 60 sec after the peptide application and those from 100 to 300 msec of the step pulses were averaged. […] Whole-cell conductance was calculated as the slope of the current-voltage (I-V) relationship from -140 mV to -100 mV and normalized to the initial value (0 μM TPN), in which BaCl2-resistant current was subtracted and indicted as a percentage.

Row | Structure (SMILES) | immobile time in FST (Male ICR mice [1]) | number of entries to the open arms in EPM (Male ICR mice [2]) | time spent in the open arms in EPM (Male ICR mice [2]) | IC50 (mouse GIRK1/4) [nM]
1 | CC[C@H](C)[C@@H]1NC(=O)[C@H](CCCNC(=N)N)NC(=O)[C@H](CC(N)=O)NC(=O)[C@@H]2CSSC[C@@H](C(=O)NCC(=O)N[C@@H](CCCCN)C(=O)N[C@@H](CCCCN)C(N)=O)NC(=O)[C@H](CCCCN)NC(=O)[C@H](CCCCN)NC(=O)[C@H](Cc3c[nH]c4ccccc34)NC(=O)[C@H](CSSC[C@H](NC(=O)[C@H](CC(C)C)NC(=O)[C@H](C)N)C(=O)N[C@@H](CC(N)=O)C(=O)N2)NC(=O)[C@H](CCC(N)=O)NC(=O)[C@H](CC(C)C)NC(=O)[C@@H]2CCCN2C(=O)[C@H]([C@@H](C)CC)NC(=O)[C@H]([C@@H](C)CC)NC1=O [Peptide 3, TPN-LQ] (H-ALCNCNRIIIPLQCWKKCGKK-NH2; disulfide 3-14, 5-18; N-terminus and C-terminus assumed) | decreased the immobile time | decreased | decreased | 
2 | CC[C@H](C)[C@@H]1NC(=O)[C@H](CCCNC(=N)N)NC(=O)[C@H](CCCNC(=N)N)NC(=O)[C@H](CC(N)=O)NC(=O)[C@@H]2CSSC[C@@H](C(=O)NCC(=O)N[C@@H](CCCCN)C(=O)N[C@@H](CCCCN)C(N)=O)NC(=O)[C@H](CCCCN)NC(=O)[C@H](CCCCN)NC(=O)[C@H](Cc3c[nH]c4ccccc34)NC(=O)[C@H](CSSC[C@H](NC(=O)[C@H](CC(C)C)NC(=O)[C@H](C)N)C(=O)N[C@@H](CC(N)=O)C(=O)N2)NC(=O)[C@H](CCC(N)=O)NC(=O)[C@H](Cc2c[nH]cn2)NC(=O)[C@@H]2CCCN2C(=O)[C@H]([C@@H](C)CC)NC1=O [Peptide 2, TPN-RQ] (H-ALCNCNRRIIPHQCWKKCGKK-NH2; disulfide 3-14, 5-18) |  |  |  | 1250

Source: paper PMC7665585, “Antidepressive effect of an inward rectifier K^+ channel blocker peptide, tertiapin-RQ” (PLoS ONE, 2020)
